Assay: xn = mol fraction of the nth substance listed
Settings: Liquid; for viscosity: Concentric cylinders viscometry

CCCC[n+]1ccn(C)c1.O=S(=O)([N-]S(=O)(=O)C(F)(F)F)C(F)(F)F + CCCCn1cc[n+](C)c1.[Cl-]
viscosity [mPa·s], 100 kPa
Settings	293.15 K	303.15 K	313.15 K	323.15 K	333.15 K	343.15 K	353.15 K	363.15 K	373.15 K
x2 = 0	63.41	41.26	28.46	20.58	15.47	12	9.562	7.788	6.469
x2 = 0.25	150.8	89.81	57.25	38.43	27.37	20.16	15.34	12.03	9.638
x2 = 0.5	489.6	255.5	144.8	87.69	57.22	39.08	27.82	20.61	15.7
x2 = 0.75	–	1095	513	265.5	150.4	91.4	58.87	40.11	28.43

mass density [kg/m3]
Settings	x2 = 0	x2 = 0.25	x2 = 0.5	x2 = 0.75
293.15 K, 100 kPa, Vibrating tube method	1440.9	1383.3	1310.1	–
303.15 K, 100 kPa, Vibrating tube method	1431.6	1374.4	1301.8	1207.9
312.3 K, 10000 kPa, Bellows volumetry	–	1373.1	1300.2	1205.8
312.3 K, 20000 kPa, Bellows volumetry	–	1379.8	1306.1	1210.5
312.3 K, 30000 kPa, Bellows volumetry	–	1386	1311.7	1215
312.3 K, 40000 kPa, Bellows volumetry	–	1392	1317	1219.3
312.3 K, 50000 kPa, Bellows volumetry	–	1397.7	1322.1	1223.6
312.3 K, 60000 kPa, Bellows volumetry	–	1403.3	1326.9	1227.7
312.3 K, 70000 kPa, Bellows volumetry	–	1408.6	1331.6	1231.6
312.3 K, 80000 kPa, Bellows volumetry	–	1413.7	1336.2	1235.5
312.3 K, 90000 kPa, Bellows volumetry	–	1418.5	1340.5	1239.2
312.3 K, 100000 kPa, Bellows volumetry	–	1423.4	1344.8	1242.8
312.3 K, 110000 kPa, Bellows volumetry	–	1428.1	1349.1	1246.4
312.3 K, 120000 kPa, Bellows volumetry	–	1432.6	1353.1	1249.9
312.3 K, 130000 kPa, Bellows volumetry	–	1437.1	1357.1	1253.3
312.3 K, 140000 kPa, Bellows volumetry	–	1441.3	1360.9	1256.6
312.3 K, 150000 kPa, Bellows volumetry	–	1445.6	1364.7	1260
312.3 K, 160000 kPa, Bellows volumetry	–	1449.7	1368.4	1263.1
312.3 K, 170000 kPa, Bellows volumetry	–	1453.8	1372.2	1266.3
312.3 K, 180000 kPa, Bellows volumetry	–	1457.7	1375.8	1269.4
312.3 K, 190000 kPa, Bellows volumetry	–	1461.7	1379.3	1272.4
312.3 K, 200000 kPa, Bellows volumetry	–	1465.4	1382.7	1275.5
313.15 K, 100 kPa, Vibrating tube method	1422.1	1365.6	1293.9	1200.6
323.15 K, 100 kPa, Vibrating tube method	1412.6	1356.8	1286	1193.6
331.8 K, 10000 kPa, Bellows volumetry	–	1356.2	1285.2	1192.4
331.8 K, 20000 kPa, Bellows volumetry	–	1363.2	1291.3	1197.3
331.8 K, 30000 kPa, Bellows volumetry	–	1369.9	1297.1	1202.1
331.8 K, 40000 kPa, Bellows volumetry	–	1376.2	1302.7	1206.7
331.8 K, 50000 kPa, Bellows volumetry	–	1382.2	1307.9	1211.1
331.8 K, 60000 kPa, Bellows volumetry	–	1388	1313	1215.5
331.8 K, 70000 kPa, Bellows volumetry	–	1393.5	1318	1219.5
331.8 K, 80000 kPa, Bellows volumetry	–	1398.9	1322.8	1223.6
331.8 K, 90000 kPa, Bellows volumetry	–	1404	1327.2	1227.4
331.8 K, 100000 kPa, Bellows volumetry	–	1408.9	1331.6	1231.2
331.8 K, 110000 kPa, Bellows volumetry	–	1413.9	1336.1	1235
331.8 K, 120000 kPa, Bellows volumetry	–	1418.5	1340.4	1238.5
331.8 K, 130000 kPa, Bellows volumetry	–	1423.2	1344.4	1242
331.8 K, 140000 kPa, Bellows volumetry	–	1427.6	1348.5	1245.4
331.8 K, 150000 kPa, Bellows volumetry	–	1432	1352.3	1248.7
331.8 K, 160000 kPa, Bellows volumetry	–	1436.3	1356.2	1252.1
331.8 K, 170000 kPa, Bellows volumetry	–	1440.5	1359.9	1255.3
331.8 K, 180000 kPa, Bellows volumetry	–	1444.5	1363.8	1258.5
331.8 K, 190000 kPa, Bellows volumetry	–	1448.5	1367.3	1261.6
331.8 K, 200000 kPa, Bellows volumetry	–	1452.6	1371	1264.7
333.15 K, 100 kPa, Vibrating tube method	1403.4	1348.2	1278.3	1186.8
343.15 K, 100 kPa, Vibrating tube method	1394	1339.6	1270.6	1180.2
351.9 K, 10000 kPa, Bellows volumetry	–	1339.5	1270.2	1179
351.9 K, 20000 kPa, Bellows volumetry	–	1346.9	1276.5	1184.3
351.9 K, 30000 kPa, Bellows volumetry	–	1354	1282.7	1189.3
351.9 K, 40000 kPa, Bellows volumetry	–	1360.6	1288.5	1194.1
351.9 K, 50000 kPa, Bellows volumetry	–	1366.9	1294.1	1198.8
351.9 K, 60000 kPa, Bellows volumetry	–	1373	1299.5	1203.2
351.9 K, 70000 kPa, Bellows volumetry	–	1378.9	1304.5	1207.5
351.9 K, 80000 kPa, Bellows volumetry	–	1384.5	1309.5	1211.8
351.9 K, 90000 kPa, Bellows volumetry	–	1389.8	1314.2	1215.7
351.9 K, 100000 kPa, Bellows volumetry	–	1394.9	1318.9	1219.6
351.9 K, 110000 kPa, Bellows volumetry	–	1400	1323.3	1223.4
351.9 K, 120000 kPa, Bellows volumetry	–	1404.9	1327.8	1227.2
351.9 K, 130000 kPa, Bellows volumetry	–	1409.6	1332	1230.8
351.9 K, 140000 kPa, Bellows volumetry	–	1414.2	1336.1	1234.5
351.9 K, 150000 kPa, Bellows volumetry	–	1418.7	1340.3	1237.9
351.9 K, 160000 kPa, Bellows volumetry	–	1423.2	1344.2	1241.4
351.9 K, 170000 kPa, Bellows volumetry	–	1427.5	1348	1244.7
351.9 K, 180000 kPa, Bellows volumetry	–	1431.7	1351.8	1247.9
351.9 K, 190000 kPa, Bellows volumetry	–	1435.8	1355.6	1251.2
351.9 K, 200000 kPa, Bellows volumetry	–	1439.9	1359.2	1254.3
353.15 K, 100 kPa, Vibrating tube method	1384.8	1331.1	1263	1173.6
363.15 K, 100 kPa, Vibrating tube method	1375.6	1322.6	1255.4	1167.1
372.1 K, 10000 kPa, Bellows volumetry	–	1322.9	1255	1165.9
372.1 K, 20000 kPa, Bellows volumetry	–	1330.9	1261.8	1171.6
372.1 K, 30000 kPa, Bellows volumetry	–	1338.3	1268.4	1176.9
372.1 K, 40000 kPa, Bellows volumetry	–	1345.3	1274.6	1181.9
372.1 K, 50000 kPa, Bellows volumetry	–	1352	1280.4	1186.7
372.1 K, 60000 kPa, Bellows volumetry	–	1358.3	1286	1191.4
372.1 K, 70000 kPa, Bellows volumetry	–	1364.4	1291.3	1195.9
372.1 K, 80000 kPa, Bellows volumetry	–	1370.4	1296.5	1200.3
372.1 K, 90000 kPa, Bellows volumetry	–	1375.8	1301.4	1204.4
372.1 K, 100000 kPa, Bellows volumetry	–	1381.2	1306.1	1208.5
372.1 K, 110000 kPa, Bellows volumetry	–	1386.4	1310.9	1212.5
372.1 K, 120000 kPa, Bellows volumetry	–	1391.5	1315.4	1216.3
372.1 K, 130000 kPa, Bellows volumetry	–	1396.2	1319.8	1220
372.1 K, 140000 kPa, Bellows volumetry	–	1401.1	1324.2	1223.7
372.1 K, 150000 kPa, Bellows volumetry	–	1405.7	1328.4	1227.3
372.1 K, 160000 kPa, Bellows volumetry	–	1410.3	1332.5	1230.8
372.1 K, 170000 kPa, Bellows volumetry	–	1414.7	1336.4	1234.1
372.1 K, 180000 kPa, Bellows volumetry	–	1419	1340.3	1237.6
372.1 K, 190000 kPa, Bellows volumetry	–	1423.3	1344.1	1240.8
372.1 K, 200000 kPa, Bellows volumetry	–	1427.6	1347.9	1244.1
373.15 K, 100 kPa, Vibrating tube method	1366.7	1314	1247.5	1160.2
392.3 K, 10000 kPa, Bellows volumetry	–	1306.7	1240.1	1152.9
392.3 K, 20000 kPa, Bellows volumetry	–	1315.1	1247.4	1158.8
392.3 K, 30000 kPa, Bellows volumetry	–	1323.1	1254.3	1164.4
392.3 K, 40000 kPa, Bellows volumetry	–	1330.5	1260.9	1169.7
392.3 K, 50000 kPa, Bellows volumetry	–	1337.5	1266.9	1174.8
392.3 K, 60000 kPa, Bellows volumetry	–	1344.2	1272.8	1179.6
392.3 K, 70000 kPa, Bellows volumetry	–	1350.5	1278.4	1184.3
392.3 K, 80000 kPa, Bellows volumetry	–	1356.6	1283.8	1188.8
392.3 K, 90000 kPa, Bellows volumetry	–	1362.4	1288.8	1193.1
392.3 K, 100000 kPa, Bellows volumetry	–	1368	1293.8	1197.3
392.3 K, 110000 kPa, Bellows volumetry	–	1373.3	1298.7	1201.5
392.3 K, 120000 kPa, Bellows volumetry	–	1378.6	1303.4	1205.5
392.3 K, 130000 kPa, Bellows volumetry	–	1383.7	1308	1209.3
392.3 K, 140000 kPa, Bellows volumetry	–	1388.7	1312.4	1213.1
392.3 K, 150000 kPa, Bellows volumetry	–	1393.5	1316.8	1216.8
392.3 K, 160000 kPa, Bellows volumetry	–	1398.2	1320.9	1220.4
392.3 K, 170000 kPa, Bellows volumetry	–	1402.8	1325.1	1224
392.3 K, 180000 kPa, Bellows volumetry	–	1407.1	1329.2	1227.4
392.3 K, 190000 kPa, Bellows volumetry	–	1411.5	1333	1230.8
392.3 K, 200000 kPa, Bellows volumetry	–	1415.9	1336.9	1234.2

— the NIST ThermoML archive (doi:10.1016/j.jct.2016.12.037)
